From patent publication US20040105849A1, “Treatment for SMA disease” (priority 2002, published 2004)

Legend:
[1] = test system: Patient A, Spinal Muscular Atrophy (SMA) Type I; assay: Tolerability / adverse effects of the supplements in Patient A; type: in vivo, human
Excerpt: It is understood that the amounts of the various ingredients of the method of the invention can be, as may be necessary, conveniently be adjusted up or down for body weigh and other variants of the disease. The mode of delivery may vary. […] Ingredients could also be injected into the gastric tube in solid, gel or semi-solid form. Other children may swallow ingredients in solid or liquid form (with pharmaceutically acceptable carriers, e.g., water).

[2] = test system: Infantile Seborrhoeic Dermatitis (cradle cap); assay: Treatment of Infantile Seborrhoeic Dermatitis (cradle cap) in Patient A; type: in vivo, human; details: about 4,000 mcg at intervals of three days per week
Excerpt: Early Symptoms and Patient Diagnosis. The patient (“Patient A”), a person. They were normal at birth with no signs of muscular weakness. Within three months of their birth, they developed a skin condition. […] Infantile Seborrhoeic Dermatitis, also known as cradle cap, is a condition that occurs in infants and is caused by the drying of excess oils excreted from the infant's body. It is characterized by a yellowish-whitish crust on the infant's head. Following medical consultation, various topical creams and ointments were employed without success. The B vitamin biotin was then given at a dosage of about 4,000 mcg at intervals of three days per week. Current research attributes cradle cap to a deficiency of this vitamin. […] Gut bacteria located in the large intestine are responsible for the production this B vitamin and a deficiency of this nutrient under normal conditions is rare.

## C[C@@H]1O[C@@H](OC[C@H]2O[C@@H](Oc3c(-c4ccc(O)c(O)c4)oc4cc(O)cc(O)c4c3=O)[C@H](O)[C@@H](O)[C@@H]2O)[C@H](O)[C@H](O)[C@H]1O [Rutin]
[1]; dosages higher than approximately 3 mg every three days
  adverse effects at higher dosages: nausea, decrease gastrointestinal motility and drowsiness
[1]; rutin added to pectin
  adverse effect of rutin along with pectin: caused their lips to blister and peel

## O=C(O)CCCC[C@@H]1SC[C@@H]2NC(=O)N[C@@H]21 [biotin]
[2]
  course of cradle cap: resolved itself almost immediately

## O=c1c(O)c(-c2ccc(O)c(O)c2)oc2cc(O)cc(O)c12 [quercetin]
[1]; above 300 mg capsule, ½ capsule three days per week
  adverse effect of too much quercetin: depress Patient A's respiration
